≈ marks a conversion by molar mass, not a printed value. Like-named read-outs stand apart in the source and are kept apart here. Bounds are passed on as bounds.

The nature of the data set: Water solubility. It counts as physicochemical. Conditions: for solubility: water, read-out: Wasserlöslichkeit.
Where [1] appears, read: result in words, no temperature stated.

As for `CCOCCOCCOc1c(I)c(C(=O)N(CCO)CC(O)CO)c(I)c(C(=O)N(CCO)CC(O)CO)c1I` (stereo not shown) [Beispiel 41, 5-(3,6-Dioxaoctyl)oxy-2,4,6-trijodisophthalsäure-bis(N-2-hydroxyethyl-N-2,3-dihydroxypropylamid)], the solubility (bei Raumtemperatur) was more than 1000 mg/mL.

Regarding `CCOCCOCCOc1c(I)c(C(=O)NCC(O)CO)c(I)c(C(=O)NC(CO)CO)c1I` (stereo not shown) [Beispiel 42, 1-(3-(1,3-Dihydroxyisopropylaminocarbonyl)-5-(2,3-dihydroxypropylamino-carbonyl)-2,4,6-trijod-phenoxy)-3,6-dioxaoctan], under “no temperature stated”, the solubility was more than 500 mg/mL.

In the case of `O=C(NC(CO)CO)c1c(I)c(OCCOCCOCCOc2c(I)c(C(=O)NC(CO)CO)c(I)c(C(=O)NC(CO)CO)c2I)c(I)c(C(=O)NC(CO)CO)c1I` [Beispiel 43, 1,8-Bis-(3,5-bis(1,3-dihydroxyisopropylaminocarbonyl)-2,4,6-trijod-phenoxy)-3,6-dioxaoctan], the Wasserlöslichkeit result under setting [1] is “Wenig löslich in Wasser”.

On to `O=C(NCC(O)CO)c1c(I)c(OCCOCCOCCOc2c(I)c(C(=O)NCC(O)CO)c(I)c(C(=O)NCC(O)CO)c2I)c(I)c(C(=O)NCC(O)CO)c1I` (stereo not shown) [Beispiel 44, 1,8-Bis-(3,5-bis(2,3-dihydroxypropylaminocarbonyl)-2,4,6-trijod-phenoxy)-3,6-dioxan], for which the Wasserlöslichkeit result under setting [1] is on record as “Wenig löslich in Wasser”.

Turning to `O=C(NCC(O)CO)c1c(I)c(OCCOCCOCCOCCOCCOc2c(I)c(C(=O)NCC(O)CO)c(I)c(C(=O)NC(CO)CO)c2I)c(I)c(C(=O)NC(CO)CO)c1I` (stereo not shown) [Beispiel 45, 1,14-Bis-(3-(1,3-dihydroxyisopropylaminocarbonyl)-5-(2,3-dihydroxy-propylaminocarbonyl)-2,4,6-trijodphenoxy)-3,6,9,12-tetraoxatetradecan], the Wasserlöslichkeit result under setting [1] is reported as “gut wasserlöslich”.

For `O=C(COc1c(I)c(C(=O)NC(CO)CO)c(I)c(C(=O)NC(CO)CO)c1I)NCCNC(=O)COc1c(I)c(C(=O)NC(CO)CO)c(I)c(C(=O)NC(CO)CO)c1I` [Beispiel 46, 1,2-Bis-(3,5-bis(1,3-dihydroxyisopropylaminocarbonyl)-2,4,6-trijod-phenoxy-acetylamino)-ethan], the Wasserlöslichkeit result under setting [1] is “kaum löslich in Wasser”.

`O=C(COc1c(I)c(C(=O)NC(CO)CO)c(I)c(C(=O)NC(CO)CO)c1I)NCC(O)C(O)CNC(=O)COc1c(I)c(C(=O)NC(CO)CO)c(I)c(C(=O)NC(CO)CO)c1I` (stereo not shown) [Beispiel 47, 1,4-Bis-(3,5-bis(1,3-dihydroxyisopropylaminocarbonyl)-2,4,6-trijod-phenoxy-acetylamino)-2,3-dihydroxybutan]: the Wasserlöslichkeit entry under setting [1] was “wasserlöslich”.

Take `O=C(COc1c(I)c(C(=O)NCC(O)CO)c(I)c(C(=O)NCC(O)CO)c1I)NC(CO)CO` (stereo not shown) [Beispiel 48, 5-(1,3-Dihydroxyisopropylaminocarbonyl)methoxy-2,4,6-trijodisophthal-säure-bis(2,3-dihydroxypropylamid)]: the Wasserlöslichkeit result under setting [1] is given as “leicht löslich in Wasser”.

Take `O=C(COc1c(I)c(C(=O)NC(CO)CO)c(I)c(C(=O)NC(CO)CO)c1I)NCC(O)CO` (stereo not shown) [Beispiel 49, 5-(2,3-Dihydroxypropylaminocarbonyl)methoxy-2,4,6-trijodisophthalsäure-bis(1,3-dihydroxyisopropylamid)]: under setting [1], the Wasserlöslichkeit result was “leicht löslich in Wasser”.

On to `COC(=O)[C@@H](C)Oc1c(Br)c(C(=O)NC(CO)CO)c(Br)c(C(=O)NC(CO)CO)c1Br` [R(+)-5(1(Methoxycarbonyl)ethoxy)-2,4,6-tribromisophthalsäure-bis(1,3-di-hydroxyisopropylamid)], for which, under setting [1], the Wasserlöslichkeit result is listed as “sehr gut wasserlösliche”.

On to `COC(=O)[C@@H](C)Oc1c(I)c(C(=O)NC(CO)CO)c(I)c(C(=O)NC(CO)CO)c1I` [R(+)-5(1(Methoxycarbonyl)ethoxy-IPSA], for which the solubility (bei 25 °C) was approximately 800 mg/mL (≈ 1010 mM).

Consider “R(+)-5-(1(1,3-Dihydroxyisopropylaminocarbonyl)ethoxy)-2,4,6-tribromiso- phthalsäure-bis(1,3-dihydroxyisopropylamid) [Beispiel 13]”, for which the Wasserlöslichkeit reads like this: (bei 20 °C) 5 % (g/v); (bei 100 °C) 100 % (g/v).
